Results taken from the supplement of paper PMC13380429.
Structures can show the parent of a compound that is named as a salt.

Assays:
Settings in all cases: 72 h
U2OS [1] = experiment: cell viability relative to DMSO; higher = less toxic
Calu-3 [2] = experiment: as above
Caco-2 [3] = experiment: as above
Vero E6 [4] = experiment: as above
HepG2 [5] = experiment: as above
U2OS [6] = experiment: relative viability EC50 (midpoint between 100% and the lowest measured viability); higher = less toxic
Calu-3 [7] = experiment: as above
Caco-2 [8] = experiment: as above
Vero E6 [9] = experiment: as above
HepG2 [10] = experiment: as above
U2OS [11] = experiment: drug sensitivity score (DSS) for viability; higher = more toxic; extreme values may be limits of the assay
Calu-3 [12] = experiment: as above
Caco-2 [13] = experiment: as above
Vero E6 [14] = experiment: as above
HepG2 [15] = experiment: as above

## CCOC(=O)Nc1ccc2c(c1)N(C(=O)CN(CC)CC)c1ccccc1CC2 [CINPA-1]
U2OS [1]; 1 nM
  cell viability: 105%
U2OS [1]; 10 nM
  cell viability: 102%
U2OS [1]; 100 nM
  cell viability: 99.5%
U2OS [1]; 1000 nM
  cell viability: 97.6%
U2OS [1]; 10000 nM
  cell viability: 99.1%
Calu-3 [2]; 1 nM
  cell viability: 109%
Calu-3 [2]; 10 nM
  cell viability: 99.6%
Calu-3 [2]; 100 nM
  cell viability: 99.5%
Calu-3 [2]; 1000 nM
  cell viability: 91.9%
Calu-3 [2]; 10000 nM
  cell viability: 107%
Caco-2 [3]; 1 nM
  cell viability: 103%
Caco-2 [3]; 10 nM
  cell viability: 96.1%
Caco-2 [3]; 100 nM
  cell viability: 100%
Caco-2 [3]; 1000 nM
  cell viability: 100%
Caco-2 [3]; 10000 nM
  cell viability: 92.2%
Vero E6 [4]; 1 nM
  cell viability: 95.2%
Vero E6 [4]; 10 nM
  cell viability: 106%
Vero E6 [4]; 100 nM
  cell viability: 96.6%
Vero E6 [4]; 1000 nM
  cell viability: 100%
Vero E6 [4]; 10000 nM
  cell viability: 91%
HepG2 [5]; 1 nM
  cell viability: 97.7%
HepG2 [5]; 10 nM
  cell viability: 106%
HepG2 [5]; 100 nM
  cell viability: 99.1%
HepG2 [5]; 1000 nM
  cell viability: 96.7%
HepG2 [5]; 10000 nM
  cell viability: 93.7%
U2OS [6]
  relative viability EC50: > 10 µM
Calu-3 [7]
  relative viability EC50: > 10 µM
Caco-2 [8]
  relative viability EC50: > 10 µM
Vero E6 [9]
  relative viability EC50: > 10 µM
HepG2 [10]
  relative viability EC50: > 10 µM
U2OS [11]
  drug sensitivity score: 0
Calu-3 [12]
  drug sensitivity score: 0
Caco-2 [13]
  drug sensitivity score: 0
Vero E6 [14]
  drug sensitivity score: 0
HepG2 [15]
  drug sensitivity score: 0

## O=C(c1cncc(Br)c1)N1CCC(N2CCCC2)CC1 [UNC669]
U2OS [1]; 1 nM
  cell viability: 97.1%
U2OS [1]; 10 nM
  cell viability: 106%
U2OS [1]; 100 nM
  cell viability: 95.1%
U2OS [1]; 1000 nM
  cell viability: 102%
U2OS [1]; 10000 nM
  cell viability: 93.6%
Calu-3 [2]; 1 nM
  cell viability: 99.3%
Calu-3 [2]; 10 nM
  cell viability: 110%
Calu-3 [2]; 100 nM
  cell viability: 93.7%
Calu-3 [2]; 1000 nM
  cell viability: 98.4%
Calu-3 [2]; 10000 nM
  cell viability: 98.3%
Caco-2 [3]; 1 nM
  cell viability: 99.1%
Caco-2 [3]; 10 nM
  cell viability: 105%
Caco-2 [3]; 100 nM
  cell viability: 90.5%
Caco-2 [3]; 1000 nM
  cell viability: 111%
Caco-2 [3]; 10000 nM
  cell viability: 92.7%
Vero E6 [4]; 1 nM
  cell viability: 101%
Vero E6 [4]; 10 nM
  cell viability: 102%
Vero E6 [4]; 100 nM
  cell viability: 95.7%
Vero E6 [4]; 1000 nM
  cell viability: 100%
Vero E6 [4]; 10000 nM
  cell viability: 97.8%
HepG2 [5]; 1 nM
  cell viability: 98.3%
HepG2 [5]; 10 nM
  cell viability: 102%
HepG2 [5]; 100 nM
  cell viability: 103%
HepG2 [5]; 1000 nM
  cell viability: 93.4%
HepG2 [5]; 10000 nM
  cell viability: 101%
U2OS [6]
  relative viability EC50: > 10 µM
Calu-3 [7]
  relative viability EC50: > 10 µM
Caco-2 [8]
  relative viability EC50: > 10 µM
Vero E6 [9]
  relative viability EC50: > 10 µM
HepG2 [10]
  relative viability EC50: > 10 µM
U2OS [11]
  drug sensitivity score: 0
Calu-3 [12]
  drug sensitivity score: 0
Caco-2 [13]
  drug sensitivity score: 0
Vero E6 [14]
  drug sensitivity score: 0
HepG2 [15]
  drug sensitivity score: 0

## CNCCc1cnc[nH]1 [N-alpha-methylhistamine-dihydrochloride]
U2OS [1]; 1 nM
  cell viability: 97.4%
U2OS [1]; 10 nM
  cell viability: 105%
U2OS [1]; 100 nM
  cell viability: 101%
U2OS [1]; 1000 nM
  cell viability: 102%
U2OS [1]; 10000 nM
  cell viability: 98%
Calu-3 [2]; 1 nM
  cell viability: 101%
Calu-3 [2]; 10 nM
  cell viability: 97.2%
Calu-3 [2]; 100 nM
  cell viability: 91.5%
Calu-3 [2]; 1000 nM
  cell viability: 109%
Calu-3 [2]; 10000 nM
  cell viability: 94.5%
Caco-2 [3]; 1 nM
  cell viability: 94.5%
Caco-2 [3]; 10 nM
  cell viability: 104%
Caco-2 [3]; 100 nM
  cell viability: 92.5%
Caco-2 [3]; 1000 nM
  cell viability: 98.2%
Caco-2 [3]; 10000 nM
  cell viability: 102%
Vero E6 [4]; 1 nM
  cell viability: 99.4%
Vero E6 [4]; 10 nM
  cell viability: 91.6%
Vero E6 [4]; 100 nM
  cell viability: 96.7%
Vero E6 [4]; 1000 nM
  cell viability: 91.5%
Vero E6 [4]; 10000 nM
  cell viability: 97.1%
HepG2 [5]; 1 nM
  cell viability: 104%
HepG2 [5]; 10 nM
  cell viability: 95.9%
HepG2 [5]; 100 nM
  cell viability: 103%
HepG2 [5]; 1000 nM
  cell viability: 87.7%
HepG2 [5]; 10000 nM
  cell viability: 112%
U2OS [6]
  relative viability EC50: > 10 µM
Calu-3 [7]
  relative viability EC50: > 10 µM
Caco-2 [8]
  relative viability EC50: > 10 µM
Vero E6 [9]
  relative viability EC50: > 10 µM
HepG2 [10]
  relative viability EC50: > 10 µM
U2OS [11]
  drug sensitivity score: 0
Calu-3 [12]
  drug sensitivity score: 0
Caco-2 [13]
  drug sensitivity score: 0
Vero E6 [14]
  drug sensitivity score: 0
HepG2 [15]
  drug sensitivity score: 0

## C[C@H]1C[C@@H]2[C@H]([C@@H](O)C[C@@]3(C)[C@H]2CC[C@]3(O)C(=O)COC(=O)CCC(=O)O)[C@@]2(C)C=CC(=O)C=C12 [methylprednisolone-sodium-succinate]
U2OS [1]; 1 nM
  cell viability: 99.2%
U2OS [1]; 10 nM
  cell viability: 93.8%
U2OS [1]; 100 nM
  cell viability: 95%
U2OS [1]; 1000 nM
  cell viability: 92.5%
U2OS [1]; 10000 nM
  cell viability: 93.9%
Calu-3 [2]; 1 nM
  cell viability: 108%
Calu-3 [2]; 10 nM
  cell viability: 99%
Calu-3 [2]; 100 nM
  cell viability: 88.8%
Calu-3 [2]; 1000 nM
  cell viability: 91.2%
Calu-3 [2]; 10000 nM
  cell viability: 122%
Caco-2 [3]; 1 nM
  cell viability: 104%
Caco-2 [3]; 10 nM
  cell viability: 94.6%
Caco-2 [3]; 100 nM
  cell viability: 98.3%
Caco-2 [3]; 1000 nM
  cell viability: 99.6%
Caco-2 [3]; 10000 nM
  cell viability: 92.5%
Vero E6 [4]; 1 nM
  cell viability: 100%
Vero E6 [4]; 10 nM
  cell viability: 103%
Vero E6 [4]; 100 nM
  cell viability: 101%
Vero E6 [4]; 1000 nM
  cell viability: 96%
Vero E6 [4]; 10000 nM
  cell viability: 98.2%
HepG2 [5]; 1 nM
  cell viability: 98.2%
HepG2 [5]; 10 nM
  cell viability: 101%
HepG2 [5]; 100 nM
  cell viability: 89.6%
HepG2 [5]; 1000 nM
  cell viability: 103%
HepG2 [5]; 10000 nM
  cell viability: 91.2%
U2OS [6]
  relative viability EC50: > 10 µM
Calu-3 [7]
  relative viability EC50: > 10 µM
Caco-2 [8]
  relative viability EC50: > 10 µM
Vero E6 [9]
  relative viability EC50: > 10 µM
HepG2 [10]
  relative viability EC50: > 10 µM
U2OS [11]
  drug sensitivity score: 0
Calu-3 [12]
  drug sensitivity score: 0
Caco-2 [13]
  drug sensitivity score: 0
Vero E6 [14]
  drug sensitivity score: 0
HepG2 [15]
  drug sensitivity score: 0

## CNCCn1c(=O)c2cc(OC)c(OC)cc2c2cnc3cc4c(cc3c21)OCO4
U2OS [1]; 1 nM
  cell viability: 96.1%
U2OS [1]; 10 nM
  cell viability: 99.5%
U2OS [1]; 100 nM
  cell viability: 97.3%
U2OS [1]; 1000 nM
  cell viability: 78.9%
U2OS [1]; 10000 nM
  cell viability: 25.9%
Calu-3 [2]; 1 nM
  cell viability: 95.8%
Calu-3 [2]; 10 nM
  cell viability: 92.9%
Calu-3 [2]; 100 nM
  cell viability: 84.8%
Calu-3 [2]; 1000 nM
  cell viability: 46.3%
Calu-3 [2]; 10000 nM
  cell viability: 30.2%
Caco-2 [3]; 1 nM
  cell viability: 95.5%
Caco-2 [3]; 10 nM
  cell viability: 95.9%
Caco-2 [3]; 100 nM
  cell viability: 89.4%
Caco-2 [3]; 1000 nM
  cell viability: 58%
Caco-2 [3]; 10000 nM
  cell viability: 9%
Vero E6 [4]; 1 nM
  cell viability: 97.6%
Vero E6 [4]; 10 nM
  cell viability: 94.7%
Vero E6 [4]; 100 nM
  cell viability: 97.9%
Vero E6 [4]; 1000 nM
  cell viability: 58.6%
Vero E6 [4]; 10000 nM
  cell viability: 24.6%
HepG2 [5]; 1 nM
  cell viability: 112%
HepG2 [5]; 10 nM
  cell viability: 92.1%
HepG2 [5]; 100 nM
  cell viability: 56.8%
HepG2 [5]; 1000 nM
  cell viability: 18.6%
HepG2 [5]; 10000 nM
  cell viability: -0.3%
U2OS [6]
  relative viability EC50: 1.44 µM
Calu-3 [7]
  relative viability EC50: 0.313 µM
Caco-2 [8]
  relative viability EC50: 1.04 µM
Vero E6 [9]
  relative viability EC50: 0.891 µM
HepG2 [10]
  relative viability EC50: 0.149 µM
U2OS [11]
  drug sensitivity score: 7.3
Calu-3 [12]
  drug sensitivity score: 11.8
Caco-2 [13]
  drug sensitivity score: 10
Vero E6 [14]
  drug sensitivity score: 9.1
HepG2 [15]
  drug sensitivity score: 20.8

## Cn1c(=O)c2c(ncn2CC(=O)Nc2ccc(-c3ccccc3)nn2)n(C)c1=O [ETC-159]
U2OS [1]; 1 nM
  cell viability: 95.1%
U2OS [1]; 10 nM
  cell viability: 96.7%
U2OS [1]; 100 nM
  cell viability: 93.4%
U2OS [1]; 1000 nM
  cell viability: 99.2%
U2OS [1]; 10000 nM
  cell viability: 98.5%
Calu-3 [2]; 1 nM
  cell viability: 98.1%
Calu-3 [2]; 10 nM
  cell viability: 94%
Calu-3 [2]; 100 nM
  cell viability: 103%
Calu-3 [2]; 1000 nM
  cell viability: 113%
Calu-3 [2]; 10000 nM
  cell viability: 110%
Caco-2 [3]; 1 nM
  cell viability: 91.7%
Caco-2 [3]; 10 nM
  cell viability: 91.3%
Caco-2 [3]; 100 nM
  cell viability: 98.3%
Caco-2 [3]; 1000 nM
  cell viability: 93.5%
Caco-2 [3]; 10000 nM
  cell viability: 79.9%
Vero E6 [4]; 1 nM
  cell viability: 97.1%
Vero E6 [4]; 10 nM
  cell viability: 97.8%
Vero E6 [4]; 100 nM
  cell viability: 93.7%
Vero E6 [4]; 1000 nM
  cell viability: 89.4%
Vero E6 [4]; 10000 nM
  cell viability: 94.7%
HepG2 [5]; 1 nM
  cell viability: 94%
HepG2 [5]; 10 nM
  cell viability: 89.4%
HepG2 [5]; 100 nM
  cell viability: 106%
HepG2 [5]; 1000 nM
  cell viability: 87.4%
HepG2 [5]; 10000 nM
  cell viability: 79.2%
U2OS [6]
  relative viability EC50: > 10 µM
Calu-3 [7]
  relative viability EC50: > 10 µM
Caco-2 [8]
  relative viability EC50: > 10 µM
Vero E6 [9]
  relative viability EC50: > 10 µM
HepG2 [10]
  relative viability EC50: > 10 µM
U2OS [11]
  drug sensitivity score: 0
Calu-3 [12]
  drug sensitivity score: 0
Caco-2 [13]
  drug sensitivity score: 0.5
Vero E6 [14]
  drug sensitivity score: 0
HepG2 [15]
  drug sensitivity score: 1.9
